Patent US20240391965A1, “STAPLED ANTIMICROBIAL PEPTIDES (STAMPS) AND USES THEREOF” (Lytica Therapeutics, Inc., priority 2021, published 2024)
Converted amounts (≈) assume the structure as drawn. Starred links: 1 amine or outer side, 2 acyl side, 3 side chain; linkers in the order of their positions; H or OH if unused. Positions of bridges follow the written chain, without caps; N, C: chain ends. Residues, ends and D or L forms follow the SMILES beside them. 2,2'Bipyridine(5,5'-diCH2) = c1cc(-c2ccc(C[*:2])cn2)ncc1C[*:1]; Naphthalene(2,6-diCH2) = c1cc2cc(C[*:2])ccc2cc1C[*:1]; mXylylene = c1cc(C[*:1])cc(C[*:2])c1; pXylylene = c1cc(C[*:2])ccc1C[*:1]; X1 = C(=CC[*:2])C[*:1]

How the values were obtained:
[1] = test system: Acinetobacter baumannii (A. baumannii); assay type: cell-based; settings: microbroth dilution, 20-24 hours at 37° C.
Method in brief: (§1)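 Visual growth read-out after 20-24 h at 37 °C defines the MIC. Inoculum: 5×10^5 CFU/ml of regrown (3-4 h) bacteria in MHB or MHB II, against serial peptide dilutions, following an adapted CLSI protocol.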

[2] = test system: Escherichia coli (E. coli); assay type: cell-based; settings: microbroth dilution, 20-24 hours at 37° C.
Method in brief: as §1

[3] = test system: Klebsiella pneumoniae (K. pneumoniae); assay type: cell-based; settings: microbroth dilution, 20-24 hours at 37° C.
Method in brief: as §1

[4] = test system: Pseudomonas aeruginosa (P. aeruginosa); assay type: cell-based; settings: microbroth dilution, 20-24 hours at 37° C.
Method in brief: as §1

[5] = test system: Staphylococcus aureus (S. aureus); assay type: cell-based; settings: microbroth dilution, 20-24 hours at 37° C.
Method in brief: as §1

[6] = 90 minute cytotoxicity assay (LDH release), renal toxicity; assay type: cell-based; settings: 90 minutes of incubation, LDH release; read-out: Inhibitory Concentration at 50% Cytotoxicity (IC50) Human Renal Proximal Tubule Epithelial Cells (RPTEC)
Method in brief: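 Released lactate dehydrogenase, read as absorbance at 490 nm after 10 min with assay reagent, serves as read-out. Renal proximal tubule epithelial cells received peptide serial dilutions or vehicle for 90 min at 37° C after overnight plating.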

[7] = 48 hours cytotoxicity assay (CellTiter-Glo), liver toxicity; assay type: cell-based, human; settings: 48 hours of incubation, CellTiter-Glo; read-out: Inhibitory Concentration at 50% Cytotoxicity (IC50) Human Liver Cells (HepG2)
Method in brief: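 Viability from CellTiter-Glo luminescence after StAMP dilution series or vehicle acted on HepG2 cells for 48 h at 37 °C. Cells were grown in EMEM plus 10% FBS and given 4 h to attach before dosing.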

Row | SMILES | Minimum Inhibitory Concentration (MIC) A. baumannii [1] [µg/mL] | Minimum Inhibitory Concentration (MIC) E. coli [2] [µg/mL] | Minimum Inhibitory Concentration (MIC) K. pneumoniae [3] [µg/mL] | Minimum Inhibitory Concentration (MIC) P. aeruginosa [4] [µg/mL] | Minimum Inhibitory Concentration (MIC) S. aureus [5] [µg/mL] | IC50 [6] [µg/mL] | IC50 [7] [µg/mL]
1 | CC[C@H](C)[C@H](NC(=O)CN)C(=O)N[C@H]1CSCc2ccc3cc(ccc3c2)CSC[C@@H](C(=O)N[C@H](C(=O)N[C@@H](CCCCN)C(=O)N[C@@H](CC(N)=O)C(=O)N[C@@H](CC(C)C)C(=O)N[C@@H](CC(C)C)C(=O)N[C@H](C(=O)N[C@@H](CO)C(=O)NCC(=O)N[C@@H](CC(C)C)C(=O)N[C@@H](CCCCN)C(=O)NCC(N)=O)[C@@H](C)CC)[C@@H](C)CC)NC(=O)[C@H](CCCCN)NC(=O)CNC(=O)[C@H](C)NC(=O)[C@H](CC(C)C)NC(=O)[C@H](CCCCN)NC(=O)[C@H](CO)NC1=O [compound 55] (H-GICSKLAGKCIKNLLISGLKG-NH2; linker 3-10 via Naphthalene(2,6-diCH2); N-terminus assumed) | 8 | 8 | 16 | 32 | 32 | 23 (≈ 10.1 µM) | 53 (≈ 23.4 µM)
2 | CC[C@H](C)[C@H](NC(=O)CN)C(=O)N[C@@H](Cc1ccccc1)C(=O)N[C@@H](CO)C(=O)N[C@@H](CCCCN)C(=O)N[C@@H](CC(C)C)C(=O)N[C@H]1CSCc2ccc(cc2)CSC[C@@H](C(=O)N[C@@H](CCCCN)C(=O)N[C@@H](CC(N)=O)C(=O)N[C@@H](CC(C)C)C(=O)N[C@@H](CC(C)C)C(=O)N[C@H](C(=O)N[C@@H](CO)C(=O)NCC(=O)N[C@@H](CC(C)C)C(=O)N[C@@H](CCCCN)C(=O)NCC(N)=O)[C@@H](C)CC)NC(=O)[C@H](CCCCN)NC(=O)[C@H](CCCCN)NC(=O)CNC1=O [compound 3] (H-GIFSKLCGKKCKNLLISGLKG-NH2; linker 7-11 via pXylylene) | 2 | 2 | 16 | 8 | >64 | 79 (≈ 34.2 µM) | 86 (≈ 37.2 µM)
3 | CC[C@H](C)[C@H](NC(=O)CN)C(=O)N[C@@H](Cc1ccccc1)C(=O)N[C@@H](CO)C(=O)N[C@@H](CCCCN)C(=O)N[C@@H](CC(C)C)C(=O)N[C@@H](C)C(=O)NCC(=O)N[C@@H](CCCCN)C(=O)N[C@@H](CCCCN)C(=O)N[C@H](C(=O)N[C@@H](CCCCN)C(=O)N[C@@H](CC(N)=O)C(=O)N[C@@H](CC(C)C)C(=O)N[C@H]1CSCC=CCSC[C@@H](C(=O)N[C@@H](CCCCN)C(=O)NCC(N)=O)NC(=O)CNC(=O)[C@H](CO)NC(=O)[C@H]([C@@H](C)CC)NC1=O)[C@@H](C)CC [compound 31] (H-GIFSKLAGKKIKNLCISGCKG-NH2; linker 15-19 via X1) | >64 | >64 | >64 | >64 | >64 | > 200 | > 200
4 | CC[C@H](C)[C@H](NC(=O)CN)C(=O)N[C@@H](Cc1ccccc1)C(=O)N[C@@H](CO)C(=O)N[C@@H](CCCCN)C(=O)N[C@@H](CC(C)C)C(=O)N[C@H]1CSCc2cccc(c2)CSC[C@@H](C(=O)N[C@@H](CCCCN)C(=O)N[C@@H](CC(N)=O)C(=O)N[C@@H](CC(C)C)C(=O)N[C@@H](CC(C)C)C(=O)N[C@H](C(=O)N[C@@H](CO)C(=O)NCC(=O)N[C@@H](CC(C)C)C(=O)N[C@@H](CCCCN)C(=O)NCC(N)=O)[C@@H](C)CC)NC(=O)[C@H](CCCCN)NC(=O)[C@H](CCCCN)NC(=O)CNC1=O [compound 2] (H-GIFSKLCGKKCKNLLISGLKG-NH2; linker 7-11 via mXylylene) | 4 | 2 | 16 | 8 | >64 | 101 (≈ 43.7 µM) | 97 (≈ 42 µM)
5 | CC[C@H](C)[C@H](NC(=O)CN)C(=O)N[C@@H](Cc1ccccc1)C(=O)N[C@@H](CO)C(=O)N[C@@H](CCCCN)C(=O)N[C@@H](CC(C)C)C(=O)N[C@@H](C)C(=O)NCC(=O)N[C@@H](CCCCN)C(=O)N[C@@H](CCCCN)C(=O)N[C@H](C(=O)N[C@H]1CSCC=CCSC[C@@H](C(=O)N[C@@H](CO)C(=O)NCC(=O)N[C@@H](CC(C)C)C(=O)N[C@@H](CCCCN)C(=O)NCC(N)=O)NC(=O)[C@H](CC(C)C)NC(=O)[C@H](CC(C)C)NC(=O)[C@H](CC(N)=O)NC1=O)[C@@H](C)CC [compound 22] (H-GIFSKLAGKKICNLLCSGLKG-NH2; linker 12-16 via X1) | 64 | 32 | >64 | 64 | >64 | > 200 | > 200
6 | CC[C@H](C)[C@H](NC(=O)CN)C(=O)N[C@H]1CSCc2ccc(nc2)-c2ccc(cn2)CSC[C@@H](C(=O)N[C@H](C(=O)N[C@@H](CCCCN)C(=O)N[C@@H](CC(N)=O)C(=O)N[C@@H](CC(C)C)C(=O)N[C@@H](CC(C)C)C(=O)N[C@H](C(=O)N[C@@H](CO)C(=O)NCC(=O)N[C@@H](CC(C)C)C(=O)N[C@@H](CCCCN)C(=O)NCC(N)=O)[C@@H](C)CC)[C@@H](C)CC)NC(=O)[C@H](CCCCN)NC(=O)CNC(=O)[C@H](C)NC(=O)[C@H](CC(C)C)NC(=O)[C@H](CCCCN)NC(=O)[C@H](CO)NC1=O [compound 54] (H-GICSKLAGKCIKNLLISGLKG-NH2; linker 3-10 via 2,2'Bipyridine(5,5'-diCH2); N-terminus assumed) | 8 | 8 | 16 | 64 | 64 | 81 (≈ 35.3 µM) | 43 (≈ 18.7 µM)
7 | CC[C@H](C)[C@H](NC(=O)CN)C(=O)N[C@@H](Cc1ccccc1)C(=O)N[C@@H](CO)C(=O)N[C@@H](CCCCN)C(=O)N[C@@H](CC(C)C)C(=O)N[C@@H](C)C(=O)NCC(=O)N[C@@H](CCCCN)C(=O)N[C@@H](CCCCN)C(=O)N[C@H]1CSCC=CCSC[C@@H](C(=O)N[C@H](C(=O)N[C@@H](CO)C(=O)NCC(=O)N[C@@H](CC(C)C)C(=O)N[C@@H](CCCCN)C(=O)NCC(N)=O)[C@@H](C)CC)NC(=O)[C@H](CC(C)C)NC(=O)[C@H](CC(N)=O)NC(=O)[C@H](CCCCN)NC1=O [compound 19] (H-GIFSKLAGKKCKNLCISGLKG-NH2; linker 11-15 via X1) | >64 | >64 | >64 | >64 | >64 | > 200 | > 200
8 | CC[C@H](C)[C@H](NC(=O)[C@H](CC(C)C)NC(=O)[C@H](CC(C)C)NC(=O)[C@H](CC(N)=O)NC(=O)[C@H](CCCCN)NC(=O)[C@@H](NC(=O)[C@H](CCCCN)NC(=O)[C@H](CCCCN)NC(=O)[C@@H]1CSCc2ccc(nc2)-c2ccc(cn2)CSC[C@H](N)C(=O)N[C@@H]([C@@H](C)CC)C(=O)N[C@@H](Cc2ccccc2)C(=O)N[C@@H](CO)C(=O)N[C@@H](CCCCN)C(=O)N[C@@H](CC(C)C)C(=O)N[C@@H](C)C(=O)N1)[C@@H](C)CC)C(=O)N[C@@H](CO)C(=O)NCC(=O)N[C@@H](CC(C)C)C(=O)N[C@@H](CCCCN)C(=O)NCC(N)=O [compound 49] (H-CIFSKLACKKIKNLLISGLKG-NH2; linker 1-8 via 2,2'Bipyridine(5,5'-diCH2); N-terminus assumed) | 32 | 32 | >64 | >64 | >64 | 60 (≈ 24.4 µM) | 22 (≈ 8.95 µM)
9 | CC[C@H](C)[C@H](NC(=O)CN)C(=O)N[C@@H](Cc1ccccc1)C(=O)N[C@@H](CO)C(=O)N[C@@H](CCCCN)C(=O)N[C@@H](CC(C)C)C(=O)N[C@@H](C)C(=O)NCC(=O)N[C@@H](CCCCN)C(=O)N[C@H]1CSCC=CCSC[C@@H](C(=O)N[C@@H](CC(C)C)C(=O)N[C@H](C(=O)N[C@@H](CO)C(=O)NCC(=O)N[C@@H](CC(C)C)C(=O)N[C@@H](CCCCN)C(=O)NCC(N)=O)[C@@H](C)CC)NC(=O)[C@H](CC(N)=O)NC(=O)[C@H](CCCCN)NC(=O)[C@H]([C@@H](C)CC)NC1=O [compound 16] (H-GIFSKLAGKCIKNCLISGLKG-NH2; linker 10-14 via X1) | 64 | 32 | >64 | >64 | >64 | > 200 | > 200
